What was measured:
Type in all cases: in vivo
[1] = test system: Digitaria ciliaris; assay: Weed foliar treatment test (Test 3); conditions: foliar spray at 1.0 to 2.0 leaf stage of Digitaria ciliaris, 3 weeks, 25° C.
Procedure: (§1) Evaluation of herbicidal efficacy was carried out by comparing growth inhibition rate (%) with an untreated group, while evaluation of chemical damage was carried out by comparing growth inhibition rate (%) with the state of a complete eradication group, and were evaluated at 11 levels indicated below. • 0 (exponent): 0% to less than 10% (growth inhibition rate) • 1: 10% to less than 20% • 2: 20% to less than 30% • 3: 30% to less than 40% • 4: 40% to less than 50% • 5: 50% to less than 60% • 6: 60% to less than 70% • 7: 70% to less than 80% • 8: 80% to less than 90% • 9: 90% to less than 100% • 10: 100% Soil was filled into a 1/6000 are pot followed by seeding with Digitaria ciliaris, Chenopodium album and Amaranthus retroflexus, covering with soil, and cultivating in a glass greenhouse at an average atmospheric temperature of 25° C. Wettable powders of Target Compound (I) shown in Table 1 prepared in compliance with the preparation examples were diluted with water to the prescribed amount of chemical and uniformly sprayed onto the weeds using 150 liters of sprayed water per 10 are when Digitaria ciliaris had grown to the 1.0 to 2.0 leaf stage. After treating for 3 weeks in a glass greenhouse at an average atmospheric temperature of 25° C., the herbicidal efficacy thereof was investigated. Evaluation of herbicidal efficacy was carried out in the same manner as the above-mentioned Test Example 1.

[2] = test system: Amaranthus retroflexus; assay: Weed foliar treatment test (Test 3); conditions: foliar spray at 1.0 to 2.0 leaf stage of Digitaria ciliaris, 3 weeks, 25° C.
Procedure: as §1

[3] = test system: Chenopodium album; assay: Weed foliar treatment test (Test 3); conditions: foliar spray at 1.0 to 2.0 leaf stage of Digitaria ciliaris, 3 weeks, 25° C.
Procedure: as §1

[4] = test system: Oryza sativa; assay: Paddy herbicidal activity test, chemical damage to transplanted rice; conditions: rice transplanted in 2.0 leaf stage, 30 days
Procedure: (§2) Rice paddy soil was filled into a 1/10000 are pot followed by the addition of suitable amounts of water and chemical fertilizer, kneading, seeding with Echinochloa crus-galli, Monochoria vaginalis and Scirpus juncoides and maintaining in an irrigated state at a water depth of 3 cm. Wettable powders of Target Compound (I) shown in Table 1 prepared in compliance with the preparation examples were diluted with a suitable amount of water, rice plants in the 2.0 leaf stage were transplanted during 3.5 leaf stage of Echinochloa crus-galli, and treated by dropping in chemical in the prescribed amount per 10 are using a pipette. After treating for 30 days in a glass greenhouse at an average atmospheric temperature of […], the herbicidal efficacy thereof was investigated. Evaluation of herbicidal efficacy was carried out by comparing growth inhibition rate (%) with an untreated group, while evaluation of chemical damage was carried out by comparing growth inhibition rate (%) with the state of a complete eradication group, and were evaluated at 11 levels indicated below. • 0 (exponent): 0% to less than 10% (growth inhibition rate) • 1: 10% to less than 20% • 2: 20% to less than 30% • 3: 30% to less than 40% • 4: 40% to less than 50% • 5: 50% to less than 60% • 6: 60% to less than 70% • 7: 70% to less than 80% • 8: 80% to less than 90% • 9: 90% to less than 100% • 10: 100%

[5] = test system: Digitaria ciliaris; assay: Farming soil treatment test; conditions: soil surface spray prior to weed growth, 30 days, 30° C.
Procedure: (§3) Evaluation of herbicidal efficacy was carried out by comparing growth inhibition rate (%) with an untreated group, while evaluation of chemical damage was carried out by comparing growth inhibition rate (%) with the state of a complete eradication group, and were evaluated at 11 levels indicated below. • 0 (exponent): 0% to less than 10% (growth inhibition rate) • 1: 10% to less than 20% • 2: 20% to less than 30% • 3: 30% to less than 40% • 4: 40% to less than 50% • 5: 50% to less than 60% • 6: 60% to less than 70% • 7: 70% to less than 80% • 8: 80% to less than 90% • 9: 90% to less than 100% • 10: 100% Field soil was filled into a 1/6000 are pot followed by seeding with Digitaria ciliaris, Chenopodium album and Amraranthus retroflexus and covering with soil. Wettable powders of compounds of formula (I) shown in Table 1 prepared in compliance with the preparation examples were diluted with water to the prescribed amount of chemical and uniformly sprayed onto each soil surface layer using 100 liters of sprayed water per 10 are prior to weed growth following seeding. After treating for 30 days in a glass greenhouse at an average atmospheric temperature of 30° C., the herbicidal efficacy thereof was investigated. Evaluation of herbicidal efficacy was carried out in the same manner as the above-mentioned Test Example 1,

[6] = test system: Amaranthus retroflexus; assay: Farming soil treatment test; conditions: soil surface spray prior to weed growth, 30 days, 30° C.
Procedure: as §3

[7] = test system: Chenopodium album; assay: Farming soil treatment test; conditions: soil surface spray prior to weed growth, 30 days, 30° C.
Procedure: as §3

[8] = test system: Galinsoga parviflora; assay: Weed foliar treatment test (Test 4, higher leaf stage); conditions: 10 g a.i./10a; foliar spray at 4.0 to 5.0 leaf stage of Digitaria ciliaris; 20 days, 25° C.
Procedure: (§4) Evaluation of herbicidal efficacy was carried out by comparing growth inhibition rate (%) with an untreated group, while evaluation of chemical damage was carried out by comparing growth inhibition rate (%) with the state of a complete eradication group, and were evaluated at 11 levels indicated below. • 0 (exponent): 0% to less than 10% (growth inhibition rate) • 1: 10% to less than 20% • 2: 20% to less than 30% • 3: 30% to less than 40% • 4: 40% to less than 50% • 5: 50% to less than 60% • 6: 60% to less than 70% • 7: 70% to less than 80% • 8: 80% to less than 90% • 9: 90% to less than 100% • 10: 100% Field soil was filled into a 1/4500 are pot followed by seeding with Digitaria ciliaris and Galinsoga parviflora, covering with soil and cultivating in a glass greenhouse at an average atmospheric temperature of 25° C. Wettable powders of Target Compound (I) shown, in Table 1 prepared in compliance with the preparation examples were diluted with water to the prescribed amount of chemical and uniformly sprayed onto the weeds using 100 liters of sprayed water per 10 are when Digitaria ciliaris had grown to the 4.0 to 5.0 leaf stage (plant height: 10 cm to 15 cm). After treating for 20 days in a glass greenhouse at an average atmospheric temperature of 25° C., the herbicidal efficacy thereof was investigated. Evaluation of herbicidal efficacy was carried out in the same manner as the above-mentioned Test Example 1.

[9] = test system: Digitaria ciliaris; assay: as above; conditions: 10 g a.i./10a; foliar spray at 4.0 to 5.0 leaf stage of Digitaria ciliaris (plant height 10 cm to 15 cm); 20 days, 25° C.
Procedure: as §4

[10] = test system: Scirpus juncoides; assay: Paddy herbicidal activity test; conditions: irrigated pot, treated at 3.5 leaf stage of Echinochloa crus-galli, 30 days
Procedure: as §2

[11] = test system: Echinochloa crus-galli; assay: Paddy herbicidal activity test; conditions: irrigated pot, treated at 3.5 leaf stage of Echinochloa crus-galli, 30 days
Procedure: as §2

[12] = test system: Monochoria vaginalis; assay: Paddy herbicidal activity test; conditions: irrigated pot, treated at 3.5 leaf stage of Echinochloa crus-galli, 30 days
Procedure: as §2

CC(=O)Nc1c([N+](=O)[O-])cnn1-c1nn2c(c1Cl)CCCC2 [Control Agent 2.17]
herbicidal efficacy (growth inhibition rate level), Digitaria ciliaris ([1]; 5 g a.i./10a): 2 (2: 20% to less than 30%) | herbicidal efficacy (growth inhibition rate level), Digitaria ciliaris ([1]; 10 g a.i./10a): 2 (2: 20% to less than 30%) | herbicidal efficacy (growth inhibition rate level), Amaranthus retroflexus ([2]; 5 g a.i./10a): 6 (6: 60% to less than 70%) | herbicidal efficacy (growth inhibition rate level), Amaranthus retroflexus ([2]; 10 g a.i./10a): 6 (6: 60% to less than 70%) | herbicidal efficacy (growth inhibition rate level), Chenopodium album ([3]; 5 g a.i./10a): 0 (0 (exponent): 0% to less than 10% (growth inhibition rate)) | herbicidal efficacy (growth inhibition rate level), Chenopodium album ([3]; 10 g a.i./10a): 1 (1: 10% to less than 20%) | chemical damage (growth inhibition rate level), Oryza sativa ([4]; 1 g a.i./10a): 0 (0 (exponent): 0% to less than 10% (growth inhibition rate)) | chemical damage (growth inhibition rate level), Oryza sativa ([4]; 5 g a.i./10a): 1 (1: 10% to less than 20%) | herbicidal efficacy (growth inhibition rate level), Digitaria ciliaris ([5]; 5 g a.i./10a): 0 (0 (exponent): 0% to less than 10% (growth inhibition rate)) | herbicidal efficacy (growth inhibition rate level), Digitaria ciliaris ([5]; 10 g a.i./10a): 1 (1: 10% to less than 20%) | herbicidal efficacy (growth inhibition rate level), Amaranthus retroflexus ([6]; 5 g a.i./10a): 4 (4: 40% to less than 50%) | herbicidal efficacy (growth inhibition rate level), Amaranthus retroflexus ([6]; 10 g a.i./10a): 5 (5: 50% to less than 60%) | herbicidal efficacy (growth inhibition rate level), Chenopodium album ([7]; 5 g a.i./10a): 0 (0 (exponent): 0% to less than 10% (growth inhibition rate)) | herbicidal efficacy (growth inhibition rate level), Chenopodium album ([7]; 10 g a.i./10a): 1 (1: 10% to less than 20%) | herbicidal efficacy (growth inhibition rate level), Galinsoga parviflora [8]: 5 (5: 50% to less than 60%) | herbicidal efficacy (growth inhibition rate level), Digitaria ciliaris [9]: 0 (0 (exponent): 0% to less than 10% (growth inhibition rate)) | herbicidal efficacy (growth inhibition rate level), Scirpus juncoides ([10]; 1 g a.i./10a): 0 (0 (exponent): 0% to less than 10% (growth inhibition rate)) | herbicidal efficacy (growth inhibition rate level), Scirpus juncoides ([10]; 5 g a.i./10a): 1 (1: 10% to less than 20%) | herbicidal efficacy (growth inhibition rate level), Echinochloa crus-galli ([11]; 1 g a.i./10a): 1 (1: 10% to less than 20%) | herbicidal efficacy (growth inhibition rate level), Echinochloa crus-galli ([11]; 5 g a.i./10a): 1 (1: 10% to less than 20%) | herbicidal efficacy (growth inhibition rate level), Monochoria vaginalis ([12]; 1 g a.i./10a): 1 (1: 10% to less than 20%) | herbicidal efficacy (growth inhibition rate level), Monochoria vaginalis ([12]; 5 g a.i./10a): 2 (2: 20% to less than 30%)
